In US20160303245A1, “FATTY ACID DERIVATIVES OF DIMERIC INHIBITORS OF PSD-95” (UNIVERSITY OF COPENHAGEN, priority 2013, published 2016) one finds fraction unbound and Kd data, which are given here for eight compounds.

T1 sequence (P02768 25-609): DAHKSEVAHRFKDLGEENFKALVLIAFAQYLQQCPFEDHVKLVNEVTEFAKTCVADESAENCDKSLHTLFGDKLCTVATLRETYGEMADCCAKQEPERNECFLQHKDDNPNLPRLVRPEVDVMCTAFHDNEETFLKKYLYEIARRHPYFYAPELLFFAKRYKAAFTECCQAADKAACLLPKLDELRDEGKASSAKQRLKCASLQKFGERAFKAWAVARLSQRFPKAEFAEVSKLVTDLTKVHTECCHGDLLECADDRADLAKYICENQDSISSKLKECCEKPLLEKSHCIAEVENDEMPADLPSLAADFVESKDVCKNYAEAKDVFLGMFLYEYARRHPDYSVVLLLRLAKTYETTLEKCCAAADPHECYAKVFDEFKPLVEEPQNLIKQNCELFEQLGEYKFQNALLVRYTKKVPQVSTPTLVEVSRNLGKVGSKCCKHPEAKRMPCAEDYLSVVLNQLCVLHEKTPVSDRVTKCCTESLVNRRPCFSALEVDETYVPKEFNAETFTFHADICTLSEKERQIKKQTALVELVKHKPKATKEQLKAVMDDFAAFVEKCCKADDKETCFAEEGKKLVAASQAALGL

The data set has as its target T1, HSA (Homo sapiens, UniProt P02768).
T1 construct: purchased Sovicell GMBH, Leipzig, Germany
Nature of the data set: Transil XL HSA binding assay (immobilized HSA, unbound compound quantified by RP-HPLC). How it is done:
The synthesized FA-linked dimeric ligands (1-12) were evaluated for their HSA affinity using a Transil^XL HSA binding assay kit (Sovicell GMBH, Leipzig, Germany). […] The assay kit consisted of prefilled wells with increasing concentrations of immobilized HSA as well as two control wells without HSA. The HSA had been immobilized in a random fashion to ensure that all binding sites on HSA were available. To conduct the assay, the wells were incubated with a known concentration of the tested compounds, and the unbound amount of compound was quantified using analytical RP-HPLC (C8 column). The fraction of unbound drug (fu) for each data point was calculated from the RP-HPLC data by comparison to a control sample without HSA. […] In eq. 1, it is assumed that the concentration of drug-bound HSA ([HSA-D]) is much lower than the total concentration of HSA in the well ([HSA-D]<<cHSA). The assay kit has been designed such that the assumption is valid for compounds where fu>1%. The calculated KD-values were used to calculate fb at physiological concentration of HSA (588 μM) using equation 2.
Regarding `CC[C@H](C)[C@H](NC(=O)CCOCCOCCN(CCOCCOCCC(=O)N[C@H](C(=O)N[C@@H](CCC(=O)O)C(=O)N[C@H](C(=O)N[C@@H](C)C(=O)N[C@H](C(=O)O)C(C)C)[C@@H](C)O)[C@@H](C)CC)C(=O)CCCNC(=O)CCCCCCCCCCC(=O)O)C(=O)N[C@@H](CCC(=O)O)C(=O)N[C@H](C(=O)N[C@@H](C)C(=O)N[C@H](C(=O)O)C(C)C)[C@@H](C)O` [Compound 2], the unbound share (fraction unbound) stood at 0.247.
On to `CCCCCCCCCCCC(=O)N[C@@H](CCC(=O)N(CCOCCOCCC(=O)N[C@H](C(=O)N[C@@H](CCC(=O)O)C(=O)N[C@H](C(=O)N[C@@H](C)C(=O)N[C@H](C(=O)O)C(C)C)[C@@H](C)O)[C@@H](C)CC)CCOCCOCCC(=O)N[C@H](C(=O)N[C@@H](CCC(=O)O)C(=O)N[C@H](C(=O)N[C@@H](C)C(=O)N[C@H](C(=O)O)C(C)C)[C@@H](C)O)[C@@H](C)CC)C(=O)O` [Compound 5], for which the free fraction (fraction unbound) stood at 0.147.
For `CC[C@H](C)[C@H](NC(=O)CCOCCOCCN(CCOCCOCCC(=O)N[C@H](C(=O)N[C@@H](CCC(=O)O)C(=O)N[C@H](C(=O)N[C@@H](C)C(=O)N[C@H](C(=O)O)C(C)C)[C@@H](C)O)[C@@H](C)CC)C(=O)CC[C@H](NC(=O)CCCCCCCCCCC(=O)O)C(=O)O)C(=O)N[C@@H](CCC(=O)O)C(=O)N[C@H](C(=O)N[C@@H](C)C(=O)N[C@H](C(=O)O)C(C)C)[C@@H](C)O` [Compound 6], the unbound share (fraction unbound) came out at 0.301.
Same read-out and setting: the value for `CC[C@H](C)[C@H](NC(=O)CCOCCOCCN(CCOCCOCCC(=O)N[C@H](C(=O)N[C@@H](CCC(=O)O)C(=O)N[C@H](C(=O)N[C@@H](C)C(=O)N[C@H](C(=O)O)C(C)C)[C@@H](C)O)[C@@H](C)CC)C(=O)CC[C@H](NC(=O)CCCCCCCCCCCCCCCCC(=O)O)C(=O)O)C(=O)N[C@@H](CCC(=O)O)C(=O)N[C@H](C(=O)N[C@@H](C)C(=O)N[C@H](C(=O)O)C(C)C)[C@@H](C)O` [Compound 8] was 0.186.
In the case of `CCCCCCCCCCCC(=O)NCCCCC(=O)N(CCOCCOCCC(=O)N[C@H](C(=O)N[C@@H](CCC(=O)O)C(=O)N[C@H](C(=O)N[C@@H](C)C(=O)N[C@H](C(=O)O)C(C)C)[C@@H](C)O)[C@@H](C)CC)CCOCCOCCC(=O)N[C@H](C(=O)N[C@@H](CCC(=O)O)C(=O)N[C@H](C(=O)N[C@@H](C)C(=O)N[C@H](C(=O)O)C(C)C)[C@@H](C)O)[C@@H](C)CC` [Compound 9], the fraction unbound amounted to 0.271.
On the same count and under the same terms, the value for `CC[C@H](C)[C@H](NC(=O)CCOCCOCCN(CCOCCOCCC(=O)N[C@H](C(=O)N[C@@H](CCC(=O)O)C(=O)N[C@H](C(=O)N[C@@H](C)C(=O)N[C@H](C(=O)O)C(C)C)[C@@H](C)O)[C@@H](C)CC)C(=O)CCCCNC(=O)CCCCCCCCCCC(=O)O)C(=O)N[C@@H](CCC(=O)O)C(=O)N[C@H](C(=O)N[C@@H](C)C(=O)N[C@H](C(=O)O)C(C)C)[C@@H](C)O` [Compound 10] was 0.615; that for `CC[C@H](C)[C@H](NC(=O)CCOCCOCCN(CCOCCOCCC(=O)N[C@H](C(=O)N[C@@H](CCC(=O)O)C(=O)N[C@H](C(=O)N[C@@H](C)C(=O)N[C@H](C(=O)O)C(C)C)[C@@H](C)O)[C@@H](C)CC)C(=O)CCCCNC(=O)CCCCCCCCCCCCCCCCC(=O)O)C(=O)N[C@@H](CCC(=O)O)C(=O)N[C@H](C(=O)N[C@@H](C)C(=O)N[C@H](C(=O)O)C(C)C)[C@@H](C)O` [Compound 12] was 0.083.
Turning to `CC[C@H](C)[C@H](NC(=O)CCOCCOCCN(CCOCCOCCC(=O)N[C@H](C(=O)N[C@@H](CCC(=O)O)C(=O)N[C@H](C(=O)N[C@@H](CC(=O)O)C(=O)N[C@H](C(=O)O)C(C)C)[C@@H](C)O)[C@@H](C)CC)C(=O)CCCNC(=O)CCCCCCCCCCCCCCCCC(=O)O)C(=O)N[C@@H](CCC(=O)O)C(=O)N[C@H](C(=O)N[C@@H](CC(=O)O)C(=O)N[C@H](C(=O)O)C(C)C)[C@@H](C)O` [Compound 14], the dissociation constant (Kd) stood at 116 ± 7.6 µM and the fraction unbound was found to be 0.436.
